Converted amounts (≈) assume the structure as drawn. Where two headings read alike, the source gives them in different places.
What was measured:
platelets in whole blood = experiment: Platelet function testing with the Hemostasis Mechanism Analyzer (HMA): clumping, sticking, clotting in whole blood; type: cell-based, human; details: for activity at 3300 µg/mL / activity at 5000 µg/mL / activity at 6700 µg/mL / activity at 700 µg/mL / activity at 670 µg/mL / activity at 11700 µg/mL / activity at 23300 µg/mL: Homo sapiens, Platelet; for activity at 700 µg/mL: Dosage (mg/ml) 0.7; for activity at 670 µg/mL: Dosage (mg/ml) 0.67
[1] = system: mitochondria isolated from liver of tilapia (Sarotheridon mossambica); type: biochemical
[2] = read-out: % clump time increase
[3] = read-out: % stick time increase
[4] = Dosage (mg/ml) 3.3, 0 dosage = 100, read-out: % clot time increase
[5] = Dosage (mg/ml) 3.3, 0 dosage = 100, read-out: % clump time increase
[6] = Dosage (mg/ml) 3.3, 0 dosage = 100, read-out: % stick time increase
[7] = Dosage (mg/ml) 5, 0 dosage = 100, read-out: % clot time increase
[8] = Dosage (mg/ml) 5, 0 dosage = 100, read-out: % clump time increase
[9] = Dosage (mg/ml) 5, 0 dosage = 100, read-out: % stick time increase
[10] = Dosage (mg/ml) 6.7, 0 dosage = 100, read-out: % clot time increase
[11] = Dosage (mg/ml) 6.7, 0 dosage = 100, read-out: % clump time increase
[12] = Dosage (mg/ml) 6.7, 0 dosage = 100, read-out: % stick time increase
[13] = in vitro whole blood assay, clumping, sticking, clotting
[14] = 0 dosage = 100, read-out: % clot time increase
[15] = 0 dosage = 100, read-out: % clump time increase
[16] = 0 dosage = 100, read-out: % stick time increase

SMILES: C1CCc2nnnn2CC1 [Compound 52, 6,7,8,9-tetrahydro-5H-tetrazolo[1,5-a]azepine]
- activity at 3300 µg/mL (platelets in whole blood; read-out: % clot time increase): 105%
- activity at 5000 µg/mL (platelets in whole blood; read-out: % clot time increase): 112%
- activity at 6700 µg/mL (platelets in whole blood; read-out: % clot time increase): 117%
- activity at 3300 µg/mL (platelets in whole blood; [2]): 115%
- activity at 5000 µg/mL (platelets in whole blood; [2]): 143%
- activity at 6700 µg/mL (platelets in whole blood; [2]): 130%
- activity at 3300 µg/mL (platelets in whole blood; [3]): 120%
- activity at 5000 µg/mL (platelets in whole blood; [3]): 138%
- activity at 6700 µg/mL (platelets in whole blood; [3]): 131%

SMILES: Cn1nnnc1S [Compound 53, 1-methyltetrazole-5-thiol]
- activity at 3300 µg/mL (platelets in whole blood; [4]): 117%
- activity at 3300 µg/mL (platelets in whole blood; [5]): 124%
- activity at 3300 µg/mL (platelets in whole blood; [6]): 117%
- activity at 5000 µg/mL (platelets in whole blood; [7]): 132%
- activity at 5000 µg/mL (platelets in whole blood; [8]): 185%
- activity at 5000 µg/mL (platelets in whole blood; [9]): 176%
- activity at 6700 µg/mL (platelets in whole blood; [10]): 160%
- activity at 6700 µg/mL (platelets in whole blood; [11]): 292%
- activity at 6700 µg/mL (platelets in whole blood; [12]): 265%
- IC50 (mg/ml) mitochondria inhibition [1]: 27.5 mg/mL (≈ 237 mM)

SMILES: Clc1nnnn1-c1ccccc1 [Compound 54, 5-chloro-1-phenyl-tetrazole]
- activity in the platelet assays (active agent or inactive) (platelets in whole blood; [13]): inactive
- IC50 (mg/ml) mitochondria inhibition [1]: 12.5 mg/mL (≈ 69.2 mM)

SMILES: Cc1ncsc1CCO [Compound 60, 2-(4-methylthiazol-5-yl)ethanol]
- activity at 700 µg/mL (platelets in whole blood; [14]): 100%
- activity at 700 µg/mL (platelets in whole blood; [15]): 108%
- activity at 700 µg/mL (platelets in whole blood; [16]): 103%
- activity at 3300 µg/mL (platelets in whole blood; [4]): 104%
- activity at 3300 µg/mL (platelets in whole blood; [5]): 136%
- activity at 3300 µg/mL (platelets in whole blood; [6]): 135%
- activity at 5000 µg/mL (platelets in whole blood; [7]): 110%
- activity at 5000 µg/mL (platelets in whole blood; [8]): 158%
- activity at 5000 µg/mL (platelets in whole blood; [9]): 155%
- activity at 6700 µg/mL (platelets in whole blood; [10]): 115%
- activity at 6700 µg/mL (platelets in whole blood; [11]): 192%
- activity at 6700 µg/mL (platelets in whole blood; [12]): 182%

SMILES: COCCc1nn[nH]n1 [Compound 68, 5-(2-methoxyethyl)-2H-tetrazole]
- activity at 670 µg/mL (platelets in whole blood; [14]): 108%
- activity at 670 µg/mL (platelets in whole blood; [15]): 100%
- activity at 670 µg/mL (platelets in whole blood; [16]): 110%
- activity at 3300 µg/mL (platelets in whole blood; [4]): 107%
- activity at 3300 µg/mL (platelets in whole blood; [5]): 100%
- activity at 3300 µg/mL (platelets in whole blood; [6]): 114%
- activity at 6700 µg/mL (platelets in whole blood; [10]): 129%
- activity at 6700 µg/mL (platelets in whole blood; [11]): 186%
- activity at 6700 µg/mL (platelets in whole blood; [12]): 175%

SMILES: NC(=O)c1nn[nH]n1 [Compound 71, 2H-tetrazole-5-carboxamide]
- activity at 3300 µg/mL (platelets in whole blood; read-out: % clot time increase): 112%
- activity at 5000 µg/mL (platelets in whole blood; read-out: % clot time increase): 122%
- activity at 6700 µg/mL (platelets in whole blood; read-out: % clot time increase): 137%
- activity at 3300 µg/mL (platelets in whole blood; [2]): 126%
- activity at 5000 µg/mL (platelets in whole blood; [2]): 171%
- activity at 6700 µg/mL (platelets in whole blood; [2]): 236%
- activity at 3300 µg/mL (platelets in whole blood; [3]): 116%
- activity at 5000 µg/mL (platelets in whole blood; [3]): 153%
- activity at 6700 µg/mL (platelets in whole blood; [3]): 205%
- IC50 (mg/ml) mitochondria inhibition [1]: 36.3 mg/mL (≈ 321 mM)

SMILES: Cn1cc[nH]c1=S [Compound 78, 3-methyl-1H-imidazole-2-thione, reference compound]
- activity at 6700 µg/mL (platelets in whole blood; read-out: % clot time increase): 110%
- activity at 11700 µg/mL (platelets in whole blood; read-out: % clot time increase): 123%
- activity at 23300 µg/mL (platelets in whole blood; read-out: % clot time increase): 156%
- activity at 6700 µg/mL (platelets in whole blood; [2]): 124%
- activity at 11700 µg/mL (platelets in whole blood; [2]): 132%
- activity at 23300 µg/mL (platelets in whole blood; [2]): 216%
- activity at 6700 µg/mL (platelets in whole blood; [3]): 101%
- activity at 11700 µg/mL (platelets in whole blood; [3]): 118%
- activity at 23300 µg/mL (platelets in whole blood; [3]): 203%
- activity in the platelet assays (active agent or inactive) (platelets in whole blood; [13]): met the criteria for active agents

SMILES: COc1cc(/C=C/C(=O)/C=C(O)/C=C/c2ccc(O)c(OC)c2)ccc1O [Compound 85, (1E,4Z,6E)-5-hydroxy-1,7-bis(4-hydroxy-3-methoxy-phenyl)hepta-1,4,6-trien-3-one]
- activity in the platelet assays (active agent or inactive) (platelets in whole blood; [13]): none of them were active agents

SMILES: C=CCSCC=C [Compound 86, 3-allylsulfanylprop-1-ene]
- activity in the platelet assays (active agent or inactive) (platelets in whole blood; [13]): none of them were active agents

SMILES: CCCCC[C@H](O)CC(=O)CCc1ccc(O)c(OC)c1 [Compound 88, (5S)-5-hydroxy-1-(4-hydroxy-3-methoxy-phenyl)decan-3-one]
- activity at 3300 µg/mL (platelets in whole blood; [4]): 104%
- activity at 3300 µg/mL (platelets in whole blood; [5]): 107%
- activity at 3300 µg/mL (platelets in whole blood; [6]): 100%
- activity at 6700 µg/mL (platelets in whole blood; [10]): 102%
- activity at 6700 µg/mL (platelets in whole blood; [11]): 106%
- activity at 6700 µg/mL (platelets in whole blood; [12]): 101%
- activity at 11700 µg/mL (platelets in whole blood; Dosage (mg/ml) 11.7, 0 dosage = 100, read-out: % clot time increase): 104%
- activity at 11700 µg/mL (platelets in whole blood; Dosage (mg/ml) 11.7, 0 dosage = 100, read-out: % clump time increase): 111%
- activity at 11700 µg/mL (platelets in whole blood; Dosage (mg/ml) 11.7, 0 dosage = 100, read-out: % stick time increase): 110%
- activity at 23300 µg/mL (platelets in whole blood; Dosage (mg/ml) 23.3, 0 dosage = 100, read-out: % clot time increase): 100%
- activity at 23300 µg/mL (platelets in whole blood; Dosage (mg/ml) 23.3, 0 dosage = 100, read-out: % clump time increase): 128%
- activity at 23300 µg/mL (platelets in whole blood; Dosage (mg/ml) 23.3, 0 dosage = 100, read-out: % stick time increase): 132%
- activity in the platelet assays (active agent or inactive) (platelets in whole blood; [13]): none of them were active agents

SMILES: Oc1ccc(/C=C/c2cc(O)cc(O)c2)cc1 [Compound 89, 5-[(E)-2-(4-hydroxyphenyl)vinyl] benzene-1,3-diol]
- activity in the platelet assays (active agent or inactive) (platelets in whole blood): none of them were active agents

SMILES: N=C(N)NC(N)=S [Compound 102, carbamimidoylthiourea]
- activity in the platelet assays (active agent or inactive) (platelets in whole blood; [13]): none of them were active agents

Reference: patent publication US9918964B2, “Reducing platelet activation, aggregation and platelet-stimulated thrombosis or blood coagulation by reducing mitochondrial respiration” (priority 2010, dated 2018)
